Here are results for 2 compounds from patent US20090131513A1, “ANTI-INFLAMMATORY MODALITIES” (Novogen Research Pty Ltd., priority 2005, published 2009).

The nature of series [1]: Anti inflammatory activity (test not specified).
Series [2] concerns contractile response of the aortic ring to noradrenaline. As to the kind of experiment: Vasodilatory activity in the rat aortic ring assay. The arrangement: species or system rat (Sprague-Dawley). To be noted: test compound 1 μg/ml. The procedure: The vasodilatory capacity of test compounds was examined ex vivo using the rat aortic ring assay.
Male Sprague-Dawley rats (250±50 g) were euthanized with 80% CO2 and 20% O2. The thoracic aorta was excised and quickly mounted in organ-baths as described (Chin-Dusting et al. 2001). Full concentration-contractile curves were obtained to noradrenaline ([…]) with and without test compounds delivered at a concentration of 1 μg/ml. Experiments were repeated in n=5 different rings from 5 different animals. Only one compound at any one concentration was tested on any one ring from any one animal. Sigmoidal dose response curves were fitted for the data and the logEC50 calculated (Prism 4, GraphPad Software). The difference in these values between the presence and absence of test compound was calculated using a two-tailed paired t test. The effects of β-oestrodiol and vehicle alone were examined as a positive and negative control respectively.

The target of series [3] is T1, TX synthase (TXS) (Homo sapiens, UniProt P24557).
T1 construct: endogenous in cells; host or cells: undifferentiated U937 cells
T1 sequence (P24557 1-533): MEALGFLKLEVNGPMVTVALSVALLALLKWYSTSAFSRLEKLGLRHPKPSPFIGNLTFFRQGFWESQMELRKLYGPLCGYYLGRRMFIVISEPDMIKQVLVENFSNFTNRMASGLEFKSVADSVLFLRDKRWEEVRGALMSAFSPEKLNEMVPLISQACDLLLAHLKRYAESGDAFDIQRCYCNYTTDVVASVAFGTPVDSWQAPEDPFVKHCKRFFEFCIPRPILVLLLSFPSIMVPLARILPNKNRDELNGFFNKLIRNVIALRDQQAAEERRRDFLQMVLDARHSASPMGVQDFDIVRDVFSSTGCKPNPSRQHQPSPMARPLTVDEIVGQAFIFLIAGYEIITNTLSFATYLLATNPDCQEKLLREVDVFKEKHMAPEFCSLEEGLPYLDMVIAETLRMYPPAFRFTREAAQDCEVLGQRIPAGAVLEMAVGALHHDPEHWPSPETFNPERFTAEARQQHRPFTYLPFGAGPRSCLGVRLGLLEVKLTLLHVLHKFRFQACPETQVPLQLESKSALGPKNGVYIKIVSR
The experiment in a line: TXB2 synthesis following addition of exogenous PGH2 to U937 cells. In kind it is cell-based. To be noted: 1, 10, 100 μM, undifferentiated U937 cells, PGH2 5 μM. The procedure:
To examine effects of test compounds directly on TX synthase (TXS), a different assay system was used. Whereas arachidonic acid (AA) is the substrate for COX, PGH2 is the substrate for TX synthase. To examine directly the effect of these compounds on TXS, exogenous ? elow:
Test compounds at 0 μM, 1 μM, 10 μM and 100 μM (in DMSO) were incubated with undifferentiated U937 cells (6×10^6/ml) for 30 min at 37° C., after which PGH2 (5 μM) was added. After incubation for 10 min, the reaction was terminated by centrifugation and the supernatants were collected and TXB2 production was measured in triplicate by RIA. ANOVA followed by Newman-Keuls multiple comparisons test was used to examine differences between doses and the control values. A statistical significance level of 0.05 was used and differences from control values are indicated by an asterisk (*).

The test system of series [4] is female BALB/c mice. As to the kind of experiment: Absence of gastrointestinal toxicity, gavage for 10 days. It counts as in vivo. Conditions: 20 mg/kg daily by gavage for 10 days. Here is the method: Compound 2 at 5 mg/kg (n=3) or vehicle (PEG 400:PBS1:1; n=2) was administered via gavage to female BALB/c mice for 10 days. […] Histology of cecum and colon were normal.
The diastereoisomeric mixture of Compounds 3a and 3b in PEG 400:PBS1:1 was administered to 7 week old female BALB/c mice (n=8) by gavage at 20 mg/kg daily for 10 days. There was no vehicle control group for comparison.
Compound 4 at 5 mg/kg (n=3) or vehicle (n=2, PEG:PBS 1:1) was administered via gavage to female BALB/c mice for 10 days. […] Histology of cecum and colon were normal.

In series [5] the test system is NFκB promoter activity. As to the kind of experiment: Inhibition of NFκB promoter activity (β-lactamase reporter) in TNFα-stimulated THP-1 cells. In kind it is cell-based, human. Conditions: 5 h. The procedure:
Human macrophage THP-1 cells, modified to include the β-lactamase reporter gene, were seeded into wells of a 96-well plate (50×10^3 cells/well) in the presence of RPMI 1640 medium (70 μl). TNFα (7.5 ng/ml) and human sera (final concentration of 20%) were added to each well. Plates were incubated for 5 h at 37° C. to allow for NFkB-stimulated β-lactamase production. LiveBLAzer™ FRET B/G Substrate (CCF4-AM) was then added to assay for β-lactamase activity. Once CCFA-AM enters a cell, it is converted to negatively charged CCF4 by endogenous esterases. Excitation of this substrate at 409 nm leads to efficient FRET between the coumarin and fluorescein moieties, resulting in a green fluorescence detectable at 530 nm. The presence of β-lactamase leads to cleavage of CCF4 and results in a loss of FRET, resulting in a robust blue fluorescent signal detectable at 460 nm. Thus, activity of beta-lactamase (a marker of NFkB-promoter activity) is measured as a product to substrate ratio (blue/green fluorescence ratio: 460 nm/530 nm).

With `Oc1ccc(C23COc4cc(O)ccc4C2O3)cc1` (stereo not drawn) [3,4-epoxy-4′,7-dihydroxyisoflavan], the anti inflammatory activity entry in series [1] is on record as “shows anti inflammatory activity”.

On to `Cc1c(O)ccc2c1OCC(c1ccc(O)cc1)C2O` (stereo not drawn) [Compound 3], for which the “contractile response (logEC50) of the aortic ring to noradrenaline compared with vehicle” value in series [2] is reported as “significantly inhibited”. In series [3], the “thromboxane synthase inhibition (TXB2 synthesis after exogenous PGH2), selectivity in words” value is “less specific”. Moreover, the “mean increase in body weight over the 10 days, of the starting weight” value in series [4] stood at 5%. Moreover, the “body weight, in words” value in series [4] (no vehicle group) is “all mice maintained body weight”. In addition, the “inhibition of NFκB compared to vehicle control” value in series [5] is given as “significantly (p<0.001) inhibited”.
